Results on 109 compounds are retold here after the Kinase Knowledgebase extract (Sharma et al. 2016).

A value given as a limit tells only on which side of the number the result lay.

The target in this assay is PIK3CG (human) (UniProt P48736). The experiment in a line: Inhibition of PIK3CG Kinase Activity.
Chain of PIK3CG (human) (P48736 whole entry, looked up): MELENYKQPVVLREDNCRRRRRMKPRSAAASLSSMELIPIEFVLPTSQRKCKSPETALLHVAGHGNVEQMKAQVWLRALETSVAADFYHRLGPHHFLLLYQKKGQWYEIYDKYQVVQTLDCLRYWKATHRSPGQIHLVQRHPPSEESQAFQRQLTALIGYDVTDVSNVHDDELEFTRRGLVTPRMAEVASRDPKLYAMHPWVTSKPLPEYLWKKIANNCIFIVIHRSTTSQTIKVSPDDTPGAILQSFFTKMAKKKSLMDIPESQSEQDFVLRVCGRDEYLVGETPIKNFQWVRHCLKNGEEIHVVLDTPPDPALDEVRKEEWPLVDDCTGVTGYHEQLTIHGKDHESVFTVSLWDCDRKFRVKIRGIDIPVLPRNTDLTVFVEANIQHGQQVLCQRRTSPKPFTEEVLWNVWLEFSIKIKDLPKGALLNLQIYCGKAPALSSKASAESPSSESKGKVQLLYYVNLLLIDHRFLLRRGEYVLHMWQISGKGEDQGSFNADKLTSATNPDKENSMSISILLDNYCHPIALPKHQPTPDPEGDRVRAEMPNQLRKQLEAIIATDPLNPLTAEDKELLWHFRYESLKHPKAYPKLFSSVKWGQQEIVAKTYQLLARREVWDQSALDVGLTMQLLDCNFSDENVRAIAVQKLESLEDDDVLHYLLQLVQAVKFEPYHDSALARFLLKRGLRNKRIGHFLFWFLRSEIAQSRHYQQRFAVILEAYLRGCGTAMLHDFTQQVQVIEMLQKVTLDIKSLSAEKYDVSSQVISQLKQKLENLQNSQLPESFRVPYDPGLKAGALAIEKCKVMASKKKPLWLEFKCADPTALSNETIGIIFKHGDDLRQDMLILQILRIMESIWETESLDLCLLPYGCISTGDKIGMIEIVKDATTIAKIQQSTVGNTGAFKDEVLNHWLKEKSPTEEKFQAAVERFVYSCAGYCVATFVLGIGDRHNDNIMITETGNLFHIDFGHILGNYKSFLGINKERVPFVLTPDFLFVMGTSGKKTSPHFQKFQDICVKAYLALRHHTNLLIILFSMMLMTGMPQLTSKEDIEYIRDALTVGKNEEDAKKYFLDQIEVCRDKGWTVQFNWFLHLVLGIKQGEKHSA
Regarding `Cn1nc(-c2ccc(OCCN3CCCC3)c(F)c2)c2cnc(N)nc21`, the IC50 was < 2000 nM.

For `CC(=O)c1cccc(-c2nn(C)c3nc(N)ncc23)c1`, the IC50 is < 2000 nM. The result for `Cn1nc(-c2cc(F)c(OCCN3CCCC3)c(Br)c2)c2cnc(N)nc21` reads < 2000 nM; that for `COCCOc1c(F)cc(-c2nn(C)c3nc(N)ncc23)cc1Br`, < 2000 nM. To `CC(=O)c1ccc(-c2nn(C)c3nc(N)ncc23)s1` belongs < 2000 nM; to `COc1cc(-c2nn(C)c3nc(N)ncc23)cc(Cl)c1O`, < 2000 nM; to `Cn1nc(-c2ccnc(Cl)c2)c2cnc(N)nc21`, < 2000 nM. To `Cn1nc(-c2cc(F)c(O)c(C=O)c2)c2cnc(N)nc21` belongs < 2000 nM; to `Cn1nc(-c2cccc3cccnc23)c2cnc(N)nc21`, < 2000 nM. For `Cn1nc(-c2cc(F)c(C=O)c(F)c2)c2cnc(N)nc21`, the IC50 is < 2000 nM.

Turning to `Cn1nc(-c2cccc(F)c2)c2cnc(N)nc21`, the concentration for half-maximal inhibition (IC50) was < 2000 nM. The result for `Cn1nc(-c2ccco2)c2cnc(N)nc21` reads < 2000 nM. With `CNc1ncc2c(-c3ccc(OC)c(F)c3)nn(C)c2n1`, the IC50 is < 2000 nM. Take `COc1ccc(C=O)cc1-c1nn(C)c2nc(N)ncc12`: the IC50 was < 2000 nM. The result for `Cn1nc(-c2cc(F)c(O)c(Br)c2)c2cnc(N)nc21` reads < 2000 nM; that for `Cn1nc(-c2ccc(Cl)c(NS(C)(=O)=O)c2)c2cnc(N)nc21`, < 2000 nM.

Regarding `Cn1nc(-c2cccc(C(F)(F)F)c2)c2cnc(N)nc21`, the IC50 is < 2000 nM. The result for `Cn1nc(-c2ccc(OCCN3CCOCC3)c(F)c2)c2cnc(N)nc21` reads < 2000 nM. The result for `Cn1nc(-c2ccc(OCCO)c(F)c2)c2cnc(N)nc21` reads < 2000 nM; that for `Cn1nc(-c2ccc(Cl)s2)c2cnc(N)nc21`, < 2000 nM; that for `CC(C)Oc1ccc(-c2nn(C)c3nc(N)ncc23)cc1Cl`, < 2000 nM. To `Cn1nc(-c2cc(F)cc(F)c2)c2cnc(N)nc21` belongs < 2000 nM; to `Cn1nc(-c2ccc(N)c(F)c2)c2cnc(N)nc21`, < 2000 nM; to `Cn1nc(-c2cccc(S(C)(=O)=O)c2)c2cnc(N)nc21`, < 2000 nM. In the case of `Cn1nc(-c2ccc(F)c(Cl)c2)c2cnc(N)nc21`, the IC50 is < 2000 nM. The result for `Cn1nc(-c2cccnc2)c2cnc(N)nc21` reads < 2000 nM; that for `Cn1nc(-c2cc(F)c(O)c(Cl)c2)c2cnc(N)nc21`, < 2000 nM. The result for `Cn1nc(-c2cccc(O)c2)c2cnc(N)nc21` reads < 2000 nM; that for `Cn1nc(-c2cc(F)c(C#N)c(F)c2)c2cnc(N)nc21`, < 2000 nM. `COc1cc(OC(F)(F)F)c(Cl)cc1-c1nn(C)c2nc(N)ncc12`: the IC50 was < 2000 nM. To `COc1ncc(-c2nn(C)c3nc(N)ncc23)cc1F` belongs < 2000 nM; to `CNC(=O)c1cccc(-c2nn(C)c3nc(N)ncc23)c1`, < 2000 nM; to `CCOc1ccc(-c2nn(C)c3nc(N)ncc23)cc1F`, < 2000 nM. With `Cn1nc(-c2ccc(OCCn3ccnc3)c(F)c2)c2cnc(N)nc21`, the half-inhibitory concentration (IC50) is < 2000 nM.

Take `Cn1nc(-c2ccc(OCCCO)c(F)c2)c2cnc(N)nc21`: the IC50 is < 2000 nM. To `COc1ccc(-c2nn(C)c3nc(N)nc(NCc4ccccc4)c23)cc1F` belongs < 2000 nM; to `Cn1nc(-c2ccncc2)c2cnc(N)nc21`, < 2000 nM; to `COc1cccc(OC)c1-c1nn(C)c2nc(N)ncc12`, < 2000 nM.

For the compound `CNS(=O)(=O)c1cccc(-c2nn(C)c3nc(N)ncc23)c1`, the IC50 was < 2000 nM.

For the compound `CC(=O)c1ccc(-c2nn(C)c3nc(N)ncc23)cc1`, the IC50 is < 2000 nM.

Regarding `Cn1nc(-c2cccc(NS(C)(=O)=O)c2)c2cnc(N)nc21`, the IC50 is < 2000 nM. To `COc1ncc(-c2nn(C)c3nc(N)ncc23)c(OC)n1` belongs < 2000 nM; to `COc1ccc(-c2nn(C)c3nc(N)ncc23)cn1`, < 2000 nM; to `COc1c(F)cc(F)cc1-c1nn(C)c2nc(N)ncc12`, < 2000 nM. To `Cn1nc(-c2ccc(OCC#N)c(F)c2)c2cnc(N)nc21` belongs < 2000 nM. To `COc1ccc(CO)cc1-c1nn(C)c2nc(N)ncc12` belongs < 2000 nM.

Regarding `COc1cc(-c2nn(C)c3nc(N)ncc23)ccn1`, the IC50 was < 2000 nM. To `Cn1nc(-c2cc(F)c(C(=O)O)c(F)c2)c2cnc(N)nc21` belongs < 2000 nM; to `Cn1nc(-c2ccc3c(c2)OCCO3)c2cnc(N)nc21`, < 2000 nM. As to `Cn1nc(-c2cncc(S(C)(=O)=O)c2)c2cnc(N)nc21`, the IC50 was < 2000 nM. The result for `Cn1nc(-c2ccc(OC(F)(F)F)cc2O)c2cnc(N)nc21` reads < 2000 nM; that for `COc1cc(F)ccc1-c1nn(C)c2nc(N)ncc12`, < 2000 nM; that for `Cn1nc(-c2ccc(O)c(F)c2)c2cnc(N)nc21`, < 2000 nM. The result for `COc1cc(-c2nn(C)c3nc(N)ncc23)cc(OC)c1OC` reads < 2000 nM; that for `Cn1nc(-c2cc(F)ccc2O)c2cnc(N)nc21`, < 2000 nM; that for `Cn1nc(-c2ccc(Cl)c(Cl)c2)c2cnc(N)nc21`, < 2000 nM. On to `Cn1nc(-c2cc(Cl)ccc2O)c2cnc(N)nc21`, for which the IC50 was < 2000 nM. The result for `Cn1nc(-c2cc(F)ccc2OCCO)c2cnc(N)nc21` reads < 2000 nM; that for `CN(C)C(=O)c1cc(-c2nn(C)c3nc(N)ncc23)cc(F)c1OCc1ccccc1`, < 2000 nM; that for `COc1ccc(Br)cc1-c1nn(C)c2nc(N)ncc12`, < 2000 nM. To `COc1ncc(-c2nn(C)c3nc(N)ncc23)cn1` belongs < 2000 nM. To `COc1ccc(F)cc1-c1nn(C)c2nc(N)ncc12` belongs < 2000 nM; to `Cn1nc(-c2ccc(O)c(C(F)(F)F)c2)c2cnc(N)nc21`, < 2000 nM; to `Cn1nc(-c2cc(C(F)(F)F)cc(Cl)c2O)c2cnc(N)nc21`, < 2000 nM. Take `Cn1nc(-c2ccc(NS(C)(=O)=O)c(F)c2)c2cnc(N)nc21`: the IC50 was < 2000 nM. The result for `Cn1nc(-c2cccc(F)c2O)c2cnc(N)nc21` reads < 2000 nM; that for `Cn1nc(-c2cccc(Br)c2OCc2ccccc2F)c2cnc(N)nc21`, < 2000 nM. The result for `CC(=O)c1cccc(-c2nn(C)c3nc(N)ncc23)c1F` reads < 2000 nM. With `COc1ccc(OC)c(-c2nn(C)c3nc(N)ncc23)c1`, the IC50 was < 2000 nM. The result for `CC(C)Oc1ccc(-c2nn(C)c3nc(N)ncc23)cc1F` reads < 2000 nM.

Take `CNS(=O)(=O)c1cc(-c2nn(C)c3nc(N)ncc23)ccc1Cl`: the IC50 is < 2000 nM. The result for `COc1ccc(-c2nn(C)c3nc(N)ncc23)cc1Br` reads < 2000 nM; that for `CC(C)CNC(=O)c1cccc(-c2nn(C)c3nc(N)ncc23)c1`, < 2000 nM. As for `Cn1nc(-c2ccc(F)c(F)c2F)c2cnc(N)nc21`, the IC50 is < 2000 nM. The result for `CCN(CC)S(=O)(=O)c1cc(-c2nn(C)c3nc(N)ncc23)ccc1O` reads < 2000 nM.

On to `COc1ccc(C(=O)O)cc1-c1nn(C)c2nc(N)ncc12`, for which the IC50 was < 2000 nM. To `CC(C)NC(=O)c1cccc(-c2nn(C)c3nc(N)ncc23)c1` belongs < 2000 nM; to `COc1ccc(-c2nn(C)c3nc(N)ncc23)cc1Cl`, < 2000 nM. To `CN1CCN(CCCOc2ccc(-c3nn(C)c4nc(N)ncc34)cc2F)CC1` belongs < 2000 nM; to `CCCOc1cc(F)ccc1-c1nn(C)c2nc(N)ncc12`, < 2000 nM; to `COc1c(F)cc(-c2nn(C)c3nc(N)ncc23)cc1F`, < 2000 nM.

As to `Cn1nc(-c2cc(F)c(F)c(F)c2)c2cnc(N)nc21`, the IC50 was < 2000 nM.

Regarding `Cn1nc(-c2ccc(F)c(F)c2)c2cnc(N)nc21`, the IC50 is < 2000 nM.

As for `Cn1nc(-c2ccc3ccoc3c2)c2cnc(N)nc21`, the IC50 is < 2000 nM.

As for `CC(C)Cc1ccc(-c2nn(C)c3nc(N)ncc23)cc1`, the 50% inhibitory concentration (IC50) is < 2000 nM. To `Cn1nc(-c2cc(C=O)ccc2O)c2cnc(N)nc21` belongs < 2000 nM; to `Cn1nc(-c2ccc(O)cc2)c2cnc(N)nc21`, < 2000 nM; to `Cn1nc(-c2ccc3c(c2)OCO3)c2cnc(N)nc21`, < 2000 nM. To `Cn1nc(-c2ccc(O)cc2O)c2cnc(N)nc21` belongs < 2000 nM; to `Cn1nc(-c2cc(Cl)cc(Br)c2O)c2cnc(N)nc21`, < 2000 nM; to `COc1c(Cl)cc(C(F)(F)F)cc1-c1nn(C)c2nc(N)ncc12`, < 2000 nM. The result for `Cn1nc(-c2cc(F)c(OCCO)c(Br)c2)c2cnc(N)nc21` reads < 2000 nM.

Regarding `COc1cc(OC)c(S(=O)(=O)NC(C)C)cc1-c1nn(C)c2nc(N)ncc12`, the IC50 was < 2000 nM. Regarding `Cn1nc(-c2cc(Br)c(O)c(Br)c2)c2cnc(N)nc21`, the IC50 was < 2000 nM. To `COc1ccc(-c2nn(C)c3nc(N)ncc23)cc1F` belongs < 2000 nM; to `CCOc1ccc2ccccc2c1-c1nn(C)c2nc(N)ncc12`, < 2000 nM; to `Cn1nc(-c2cnc(N)c(C(F)(F)F)c2)c2cnc(N)nc21`, < 2000 nM.

`Cn1nc(-c2cc(F)c3[nH]ccc3c2)c2cnc(N)nc21`: the IC50 is < 2000 nM.

With `Cn1nc(-c2cc(Cl)c(OC(F)(F)F)c(Br)c2O)c2cnc(N)nc21`, the IC50 was < 2000 nM. To `Cn1nc(-c2cc(Cl)c(O)c(Cl)c2)c2cnc(N)nc21` belongs < 2000 nM; to `COc1ccc(NCCCN(C)C)cc1-c1nn(C)c2nc(N)ncc12`, < 2000 nM.

For `Cn1nc(-c2cc(F)c(O)c(F)c2)c2cnc(N)nc21`, the 50% inhibitory concentration (IC50) is < 2000 nM. As for `Cn1nc(-c2cc(F)cc(Br)c2)c2cnc(N)nc21`, the IC50 is < 2000 nM. To `CNS(=O)(=O)c1cc(-c2nn(C)c3nc(N)ncc23)c(OC)cc1OC` belongs < 2000 nM; to `Cn1nc(-c2ccc(C#N)cc2)c2cnc(N)nc21`, < 2000 nM; to `Cn1nc(-c2cc(Cl)c(O)c(C(F)(F)F)c2)c2cnc(N)nc21`, < 2000 nM. On to `Cn1nc(-c2cc(F)c(O)c(C#N)c2)c2cnc(N)nc21`, for which the IC50 was < 2000 nM. To `Cc1cccc(-c2nn(C)c3nc(N)ncc23)c1` belongs < 2000 nM; to `COc1ccc(C(F)(F)F)cc1-c1nn(C)c2nc(N)ncc12`, < 2000 nM.
